Legend:
4-3.6 cells = test: In vitro survival assay with caspase inhibitor, serum-withdrawal model, 4-3.6 cells; format: cell-based, rat; conditions: ~48 hrs
Text: (§1) 4-3.6 cells are placed in serum free media (SFM, PFHM-II, GIBCO, Toronto), where they undergo apoptosis (serum-withdrawal model).

B104 cells [1] = test: In vitro survival assay with caspase inhibitor, B104 cells that do not express TrkA; format: cell-based, rat; conditions: B104 cells (no TrkA), serum free media
Experimental: as §1
Cells are then cultured for ~48 hrs. Cell growth/survival is calculated relative to 5% serum (standardized to 100%). Addition of serum protects cells in SFM from death.
Cell survival is measured by quantitative tetrazolium salt reagent (MTT, Sigma) and optical density (OD) readings as described [Maliartchouk, 1997]. n=3-6.
Testing 4-3.6 Cell Survival (MTT, % of serum control). Serum free media 0.+−. 4 5%. Serum 100.+−. 2 20 nM zVAD−2.+−. 3 VAD-5C3 conjugate (20 nM VAD equivalent, 1 nM 41.+−. 1 5C3). […] Typicaly, […] mAb 5C3 alone (unconjugated) does protect 4-3.6 cells in SFM to ~10%, which is a much lower degree of protection than equimolar doses of the VAD-5C3 conjugate.

KB-V cells = test: cells
[2] = test system: mouse fibroblasts stably transfected with IGF-R; conditions: 72 h
[3] = test system: neuroblastoma (B104 cells) xenografted in nude mice; test: In vivo tumor study, B104 neuroblastoma xenografted in nude mice
Text: Nude mice (seven weeks old, female) are used to test the effect of paclitaxel in tumor progression. […] Tumor growth is monitored daily. Mice are then randomized and treatments are initiated. […] Measurements of tumor volume are taken using calipers, every day post treatment for a total of 25 days.

B104 cells [4] = test system: B104 cells
Experimental: The B104 cells are a rat neuroblastoma line that expresses p75 receptors (p75^+). The 4-3.6 cells are B104 cells stably transfected with human TrkA cDNA (p75^+, TrkA^+).
Therefore, tested is whether a single bolus of paclitaxel is an effective cytotoxic agent. Cells ae exposed to the indicated concentration of paclitaxel for 30 minutes at 4° C. Then, cells are plated in a 96-well plate (Falcon); this group represents treatment with paclitaxel present in a constant manner. The remaining cells are washed free of excess paclitaxel prior to plating; this group represents a single exposure to paclitaxel. […] Optical density readings of MTT are done in an EIA Plate Reader model 2550 (Bio-Rad) at 595 nm.
Paclitaxel is lipophilic and readily penetrates the cell membrane. […] Tested is whether a single short term exposure to paclitaxel can be effective in killing neuroblastoma B104 cells. These assays are done at 4°
The mAbs purpose is purely for target binding.

[5] = test system: cells that do not express p75; test: Selectivity of paclitaxel-MC192 on cells that do not express p75; format: cell-based

In the case of “benzoic acid-Valine-Alanine-Aspartic acid-O-methyl-fluoromethyl-Iketone peptide [zVAD]”, the “protection of cells in SFM” value (4-3.6 cells) is reported as “does not protect cells” and the “protection of B104 cells from death” value (B104 cells [1]) is reported as “Neither 20 nM zVAD nor VAD-5c3 conjugate afford protection”.
`COc1cccc2c1C(=O)c1c(O)c3c(c(O)c1C2=O)C[C@@](O)(C(=O)CO)C[C@@H]3O[C@H]1C[C@H](N)[C@H](O)[C@H](C)O1` [Doxorubicin] was tested, and the “cytotoxicity on multidrug resistant KB-V cells compared to sensitive KB cells” value (KB-V cells) was “inactive on KB-V cells unless Verapamil was added”, the IC50 (KB-V cells; Homo sapiens, KBV, 72 h, read-out: IC50 ± SEM) was greater than 320 nM and the “cytotoxicity with or without excess antibody” value [2] was “the same cytotoxicity whether excess of mig or α-IR3 is present or not”.
`CC(=O)O[C@H]1C(=O)[C@@]2(C)[C@H]([C@H](OC(=O)c3ccccc3)[C@]3(O)C[C@H](OC(=O)[C@H](O)[C@@H](NC(=O)c4ccccc4)c4ccccc4)C(C)=C1C3(C)C)[C@]1(OC(C)=O)CO[C@@H]1C[C@@H]2O` [paclitaxel] was tested, and the “antitumor activity, tumor growth” value ([3]; nude mice, five IP injections every two days, versus control (HBSS)) was “not able to do so”, the “efficacy of free drug at the conjugate's effective dose” value ([3]; ~3.5 nM) was “not effective at this dose” and the “cytotoxic effect, single exposure versus constant presence” value (B104 cells [4]) was “generally the same whether the drug is present in the culture throughout or after a single exposure”. For the same compound, the “cytotoxicity, constant versus single dose” value (B104 cells [4]; rat, 48 h) was “the same after 48 hours whether a constant or a single dose is given” and the “cytotoxicity on cells that do not express p75” value [5] was “dose-dependent cytotoxicity”.
